Laboratory results: patent US20080262080A1, “Allergy Suppressive Agent” (KYUSHU UNIVERSITY, NATIONAL UNIVERSITY CORPORATION, priority 2004, published 2008)

What was measured:
STAT6 = test: Chrysin intake test: STAT6 phosphorylation in spleen lymphocytes of orally dosed mice; format: in vivo, mouse
Experimental: Spleen lymphocytes collected from mice, to which chrysin had been orally administered continuously, were stimulated with LPS or LPS+IL-4 (500 U/ml) and phosphorylated STAT6 was detected by immunoprecipitation using anti-STAT6 antibody and immunoblotting. 200 μL portions of 0.4 mg/mL chrysin and 200 μL portions of 1% DMSO in 1% EtOH were administered respectively to groups (n=8) in accordance with the following administration schedule. To male C57BL/6N mice aged 5 weeks that had been preliminarily fed (MF feed) for 1 week, the samples were administered once every 2 days for 2 weeks (7 times in total; total dose: 0.56 mg (28 mg/kg) per animal). After sacrificing, spleen lymphocytes were collected from the spleen of each mouse, adjusted to a density of 2×10^7 cells/mL and stimulated with 25 μg/mL of lipopolysaccharide (LPS) or LPS+IL-4 (500 U/mL) for 30 min. Then, the cells were lysed and phosphorylated STAT6 was detected by immunoprecipitation with the use of anti-STAT6 antibody and immunoblotting to thereby examine the response to IL-4.

[1] = test system: FcεRI α- and γ-chains mRNA; test: mRNA transcription level of FcεRI α- and γ-chains in KU812 cells (RT-PCR, Southern hybridization); format: cell-based, human; details: serum-free, G3PDH control
Experimental: The mRNA expression of each of the FcεRI α- and γ-chains was detected by RT-PCR and southern hybridization using specific probes. G3PDH (glyceraldehyde-3-phosphate dehydrogenase) was employed as a control.
KU812 cells (1×10^6 cells/mL) were incubated under serum-free conditions in RPMI 1640 medium to which chrysin had been added. After incubating, the cells were washed with PBS once and then completely lysed by adding 1 mL of Trizol (Invitrogen) per 1×10^7 cells and quickly suspending. After allowing to stand at room temperature for 5 min, 0.2 mL of chloroform was added and the mixture was vigorously stirred and overturned. […] The concentration of the total RNA diluted 50-fold with water was measured using a wavelength of 260 nm. […]
The PCR mixture was prepared by mixing 1 μL of the cDNA, 0.8 μL of 2 mM dNTP, 0.6 μL of MgCl2, 0.5 μL of […] sense primer, 0.5 μL of 20 μM antisense primer, 0.1 μL of Taq DNA polymerase (Fermentas) and 1 μL of 10× Taq buffer accompanying Taq DNA polymerase and adjusting the total volume to 10 μL with distilled water. […] Next, amplification was conducted in 13 to 15 cycles (each cycle consisting of 1 min at 95° C., 1 min at 60° C. and 1 min at 72° C. The PCR product was electrophoresed on a 1% agarose gel and the amplified DNA was detected by Southern blotting. […]

O=c1cc(-c2ccccc2)oc2cc(O)cc(O)c12 [Chrysin, 5,7-dihydroxyflavone]
phosphorylation of STAT6 by the stimulus with LPS+IL-4 (STAT6; C57BL/6N mice, oral chrysin once every 2 days for 2 weeks, total 28 mg/kg, spleen lymphocytes, LPS+IL-4 (500 U/mL) 30 min, vs control system): suppressed | oral dose at which chrysin is efficacious as an antiallergic agent (STAT6; male adults having an average body weight of 60 kg (28 mg/kg)): ≥ 1.68 g/day | expression of FcεRI at the mRNA level [1]: suppressed
